Laboratory results taken from patent US10381110B2, “Molecules” (University of Dundee, priority 2010, dated 2019).
Counter-ions that a name gives are not always drawn. Like-named read-outs stand apart in the source and are kept apart here.

Tests used:
Alpha1B = biological target: T1, Alpha1B (Homo sapiens, UniProt P35368); test: Primary radioligand binding assay (NIMH PDSP); conditions: primary radiobinding assay, [3H]Prazosin; further: test concentration or dose not given here
T1 sequence (P35368 1-520): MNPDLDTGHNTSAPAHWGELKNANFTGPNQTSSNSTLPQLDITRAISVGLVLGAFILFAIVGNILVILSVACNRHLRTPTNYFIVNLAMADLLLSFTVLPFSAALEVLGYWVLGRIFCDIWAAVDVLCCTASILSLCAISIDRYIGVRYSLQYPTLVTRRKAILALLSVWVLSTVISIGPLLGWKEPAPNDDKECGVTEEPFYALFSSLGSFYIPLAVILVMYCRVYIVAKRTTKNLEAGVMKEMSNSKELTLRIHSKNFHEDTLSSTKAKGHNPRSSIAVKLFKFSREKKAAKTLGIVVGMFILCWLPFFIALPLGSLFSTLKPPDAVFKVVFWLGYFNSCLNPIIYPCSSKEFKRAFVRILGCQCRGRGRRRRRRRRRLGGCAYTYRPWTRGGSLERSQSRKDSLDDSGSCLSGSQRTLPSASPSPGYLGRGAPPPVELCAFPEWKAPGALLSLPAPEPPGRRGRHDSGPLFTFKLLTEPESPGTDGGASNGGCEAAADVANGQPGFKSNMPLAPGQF

dopamine D5 = dopamine D5 (Homo sapiens, UniProt P21918); test: Primary radioligand binding assay (NIMH PDSP); conditions: primary radiobinding assay, [3H]SCH233930; further: test concentration or dose not given here
Chain of dopamine D5 (P21918 whole entry): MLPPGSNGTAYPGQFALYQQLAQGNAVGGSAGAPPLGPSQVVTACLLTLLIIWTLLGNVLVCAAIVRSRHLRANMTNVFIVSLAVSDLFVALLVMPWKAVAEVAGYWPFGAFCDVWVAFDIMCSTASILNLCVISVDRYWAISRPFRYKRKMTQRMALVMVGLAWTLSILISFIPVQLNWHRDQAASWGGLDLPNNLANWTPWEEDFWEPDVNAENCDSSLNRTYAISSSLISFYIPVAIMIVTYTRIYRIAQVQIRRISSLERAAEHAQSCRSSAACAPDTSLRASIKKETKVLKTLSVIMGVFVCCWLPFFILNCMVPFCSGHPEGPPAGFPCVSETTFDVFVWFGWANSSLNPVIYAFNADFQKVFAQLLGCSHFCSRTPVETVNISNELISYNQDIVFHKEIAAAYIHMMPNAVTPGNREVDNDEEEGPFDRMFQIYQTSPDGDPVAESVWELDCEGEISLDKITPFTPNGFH

Alpha1A = biological target: T2, Alpha1A (Homo sapiens, UniProt P35348); test: Primary radioligand binding assay (NIMH PDSP); conditions: primary radiobinding assay, [3H]Prazosin; further: test concentration or dose not given here
T2 sequence (P35348 1-466): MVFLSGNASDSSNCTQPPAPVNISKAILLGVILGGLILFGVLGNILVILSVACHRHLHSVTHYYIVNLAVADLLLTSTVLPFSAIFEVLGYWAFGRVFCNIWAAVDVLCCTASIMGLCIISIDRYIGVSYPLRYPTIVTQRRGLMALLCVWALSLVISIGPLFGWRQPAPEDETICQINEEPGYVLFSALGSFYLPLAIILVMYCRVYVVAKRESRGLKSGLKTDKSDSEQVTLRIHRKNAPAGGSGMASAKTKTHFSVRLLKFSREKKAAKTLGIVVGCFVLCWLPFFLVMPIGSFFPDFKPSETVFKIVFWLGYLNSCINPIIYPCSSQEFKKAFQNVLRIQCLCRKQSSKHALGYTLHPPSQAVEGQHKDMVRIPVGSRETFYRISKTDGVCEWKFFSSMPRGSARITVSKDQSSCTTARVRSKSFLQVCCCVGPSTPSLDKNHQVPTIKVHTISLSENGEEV

5HT1a [1] = biological target: T3, 5HT1a (Homo sapiens, UniProt P08908); test: Primary radioligand binding assay (NIMH PDSP); conditions: primary radiobinding assay, [3H]8-OH-DPAT; further: test concentration or dose not given here
T3 sequence (P08908 1-422): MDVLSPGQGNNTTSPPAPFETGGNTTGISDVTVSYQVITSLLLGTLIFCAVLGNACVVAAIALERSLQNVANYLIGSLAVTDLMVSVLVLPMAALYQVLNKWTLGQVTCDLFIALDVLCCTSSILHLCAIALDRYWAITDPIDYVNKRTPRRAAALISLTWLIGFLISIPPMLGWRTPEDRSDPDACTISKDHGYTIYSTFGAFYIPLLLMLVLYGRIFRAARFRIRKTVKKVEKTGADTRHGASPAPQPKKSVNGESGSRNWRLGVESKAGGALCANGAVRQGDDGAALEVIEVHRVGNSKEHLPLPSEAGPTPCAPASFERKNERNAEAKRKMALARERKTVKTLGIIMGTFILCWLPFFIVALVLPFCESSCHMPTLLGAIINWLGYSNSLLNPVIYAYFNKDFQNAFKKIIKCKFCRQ

dopamine D3 [2] = biological target: T4, dopamine D3 (Homo sapiens, UniProt P35462); test: Primary radioligand binding assay (NIMH PDSP); conditions: primary radiobinding assay, N-methylspiperone; further: test concentration or dose not given here
T4 sequence (P35462 whole entry): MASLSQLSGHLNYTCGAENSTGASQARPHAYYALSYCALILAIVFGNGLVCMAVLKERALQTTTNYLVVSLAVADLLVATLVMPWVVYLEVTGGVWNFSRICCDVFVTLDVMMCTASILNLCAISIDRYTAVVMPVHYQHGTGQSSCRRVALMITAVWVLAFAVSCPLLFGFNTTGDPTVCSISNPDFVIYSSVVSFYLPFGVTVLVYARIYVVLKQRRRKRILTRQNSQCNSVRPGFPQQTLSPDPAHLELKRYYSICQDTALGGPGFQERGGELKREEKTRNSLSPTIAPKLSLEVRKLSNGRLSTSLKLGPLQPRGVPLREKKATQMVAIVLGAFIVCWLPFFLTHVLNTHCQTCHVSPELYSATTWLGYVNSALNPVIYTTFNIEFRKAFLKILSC

dopamine D2 [3] = biological target: T5, dopamine D2 (Homo sapiens, UniProt P14416); test: Primary radioligand binding assay (NIMH PDSP); conditions: primary radiobinding assay, [3H]N-methylspiperone; on D4 (% inh): test concentration or dose not given here
T5 sequence (P14416 whole entry, species assumed): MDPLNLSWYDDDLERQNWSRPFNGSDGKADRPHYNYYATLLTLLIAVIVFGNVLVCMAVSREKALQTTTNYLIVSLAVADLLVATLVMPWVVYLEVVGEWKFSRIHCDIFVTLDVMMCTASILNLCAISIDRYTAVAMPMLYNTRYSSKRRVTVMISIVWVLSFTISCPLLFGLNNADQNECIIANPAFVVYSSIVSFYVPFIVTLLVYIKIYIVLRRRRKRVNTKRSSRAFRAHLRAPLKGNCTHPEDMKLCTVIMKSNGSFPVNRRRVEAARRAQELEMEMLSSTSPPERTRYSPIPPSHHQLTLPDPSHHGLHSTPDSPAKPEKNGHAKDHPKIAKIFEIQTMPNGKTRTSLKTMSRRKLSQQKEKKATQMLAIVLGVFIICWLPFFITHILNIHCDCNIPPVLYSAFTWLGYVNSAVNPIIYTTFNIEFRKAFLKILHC

dopamine D1 = dopamine D1 (Homo sapiens, UniProt P21728); test: Primary radioligand binding assay (NIMH PDSP); conditions: primary radiobinding assay, [3H]SCH233930; further: test concentration or dose not given here
Chain of dopamine D1 (P21728 whole entry): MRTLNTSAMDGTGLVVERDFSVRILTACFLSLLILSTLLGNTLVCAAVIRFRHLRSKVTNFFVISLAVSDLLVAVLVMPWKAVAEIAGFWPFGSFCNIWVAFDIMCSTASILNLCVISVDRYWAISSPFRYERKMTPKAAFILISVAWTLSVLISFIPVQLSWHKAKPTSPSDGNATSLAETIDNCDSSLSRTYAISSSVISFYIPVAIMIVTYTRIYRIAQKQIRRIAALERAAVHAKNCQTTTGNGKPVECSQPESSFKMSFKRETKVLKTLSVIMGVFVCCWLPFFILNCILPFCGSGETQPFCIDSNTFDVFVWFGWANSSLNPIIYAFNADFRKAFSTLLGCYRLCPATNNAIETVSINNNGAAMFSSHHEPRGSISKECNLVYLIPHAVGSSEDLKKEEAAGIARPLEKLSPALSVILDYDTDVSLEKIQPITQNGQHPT

dopamine D4 = biological target: T6, dopamine D4 (Homo sapiens, UniProt P21917); test: Primary radioligand binding assay (NIMH PDSP); conditions: primary radiobinding assay, N-methylspiperone; on D4 (% inh): test concentration or dose not given here
T6 sequence (P21917 1-419): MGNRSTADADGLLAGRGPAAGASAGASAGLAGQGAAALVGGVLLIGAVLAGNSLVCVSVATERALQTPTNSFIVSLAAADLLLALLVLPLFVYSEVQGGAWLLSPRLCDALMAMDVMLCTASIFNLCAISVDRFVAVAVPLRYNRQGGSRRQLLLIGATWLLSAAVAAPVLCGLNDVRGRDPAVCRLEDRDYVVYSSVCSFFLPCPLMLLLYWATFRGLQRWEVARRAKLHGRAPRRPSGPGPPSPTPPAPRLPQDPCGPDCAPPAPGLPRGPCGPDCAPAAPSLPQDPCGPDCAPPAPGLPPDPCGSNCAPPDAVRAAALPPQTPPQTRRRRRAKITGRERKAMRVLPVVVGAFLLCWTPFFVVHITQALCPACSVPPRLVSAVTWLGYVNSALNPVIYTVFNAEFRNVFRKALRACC

5-HT5A = 5-HT5A (Homo sapiens, UniProt P47898); test: Secondary radioligand binding assay (Ki)
Chain of 5-HT5A (P47898 whole entry, species assumed): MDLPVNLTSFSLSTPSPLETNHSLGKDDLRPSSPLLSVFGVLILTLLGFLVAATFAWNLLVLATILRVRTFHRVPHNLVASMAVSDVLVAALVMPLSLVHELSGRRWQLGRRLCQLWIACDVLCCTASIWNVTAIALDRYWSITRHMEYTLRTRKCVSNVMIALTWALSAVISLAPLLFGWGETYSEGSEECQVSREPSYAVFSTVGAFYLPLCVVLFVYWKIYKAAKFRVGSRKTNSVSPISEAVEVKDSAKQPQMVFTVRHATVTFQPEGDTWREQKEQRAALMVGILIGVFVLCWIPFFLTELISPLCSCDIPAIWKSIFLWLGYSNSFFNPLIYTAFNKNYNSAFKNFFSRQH
Protocol: (§1) Assay Buffer: Standard Binding Buffer (50 mM Tris-HCl, 10 mM MgCl2, 1 mM EDTA, pH 7.4)
(§2) Membrane Fraction Source: Transiently or stably transfected cell lines (e.g., HEK293, COS, CHO, NIH3T3)
(§3) Radioligand is diluted to five times the assay concentration (see Table 18) in Standard Binding Buffer. Typically, the assay concentration of radioligand is a value between one half the KD and the KD of a particular radioligand at its target. 50 μl aliquots of radioligand are dispensed into the wells of a 96-well plate containing 100 μl of Standard Binding Buffer. Then, duplicate 50 μl aliquots of the test and reference compound dilutions are added.
(§4) The 250 μl reactions are incubated at room temperature and shielded from light (to prevent photolysis of light-sensitive ligands) for 1.5 hours, then harvested by rapid filtration onto Whatman GF/B glass fiber filters pre-soaked with 0.3% polyethyleneimine using a 96-well Brandel harverster. Four rapid 500 μl washes are performed with chilled Standard Binding Buffer to reduce non-specific binding. Filters are placed in 6 ml scintillation tubes and allowed to dry overnight. The next day, 4 ml of EcoScint scintillation cocktail (National Diagnostics) are added to each tube. The tubes are capped, labeled, and counted by liquid scintillation counting. […] The filter mats are dried, then scintillant is melted onto the filters and the radioactivity retained on the filters is counted in a Microbeta scintillation counter.
(§5) Raw data (dpm) representing total radioligand binding (i.e. specific+non-specific binding) are plotted as a function of the logarithm of the molar concentration of the competitor (i.e. test or reference compound).

5HT1a [4] = biological target: T3, 5HT1a; test: Secondary radioligand binding assay (Ki); conditions: for α1/D2: Table 24: Selectivity of 5HT1A over average of α1 Receptors; for α1A/D2 / α1B/D2 / α1D/D2: Table 24: Selectivity of 5HT1A over α1 Receptors, ratio of Ki
Protocol: as §1, §2, §3, §4, §5

dopamine D2 [5] = biological target: T5, dopamine D2; test: Secondary radioligand binding assay (Ki); conditions: for α1/D2: Table 22: Selectivity of Dopamine D2 over average of α1 Receptors; for α1A/D2 / α1B/D2 / α1D/D2: Table 22: Selectivity of Dopamine D2 over α1 Receptors, ratio of Ki
Protocol: as §3, §4, §5
(§6) Assay Buffers: Dopamine Binding Buffer (50 mM NaCl, 50 mM HEPES-HCl, 5 mM MgCl2, 0.5 mM EDTA, pH 7.4)
(§7) Membrane Fraction Source: Transiently or stably transfected cell lines (e.g. HEK293, COS, CHO, NIH3T3)
(§8) The method is carried out in the manner described for the serotonin receptor assay above. Eleven dilutions (5× assay concentration) of the test and reference (see Table 19) compounds are prepared in Dopamine Binding Buffer by serial dilution, as previously described. Radioligand is diluted to five times the assay concentration (see Table 20) in Dopamine Binding Buffer.

5-HT2B = 5-HT2B (Homo sapiens, UniProt P41595); test: Secondary radioligand binding assay (Ki)
Chain of 5-HT2B (P41595 whole entry, species assumed): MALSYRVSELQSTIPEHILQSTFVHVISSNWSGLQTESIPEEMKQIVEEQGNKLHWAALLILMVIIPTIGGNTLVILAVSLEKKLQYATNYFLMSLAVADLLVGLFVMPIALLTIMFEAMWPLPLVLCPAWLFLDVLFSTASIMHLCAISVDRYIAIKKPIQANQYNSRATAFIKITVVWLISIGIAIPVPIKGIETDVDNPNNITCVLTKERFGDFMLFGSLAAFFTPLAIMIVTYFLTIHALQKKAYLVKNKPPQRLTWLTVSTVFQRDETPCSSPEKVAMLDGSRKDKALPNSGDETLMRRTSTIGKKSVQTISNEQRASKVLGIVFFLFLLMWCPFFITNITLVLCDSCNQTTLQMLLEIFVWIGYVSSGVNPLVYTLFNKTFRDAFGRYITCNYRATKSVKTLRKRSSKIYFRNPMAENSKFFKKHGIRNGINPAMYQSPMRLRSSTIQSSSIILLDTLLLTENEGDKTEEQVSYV
Protocol: as §1, §2, §3, §4, §5

dopamine D3 [6] = biological target: T4, dopamine D3; test: Secondary radioligand binding assay (Ki); conditions: for α1/D2: Table 23: Selectivity of Dopamine D3 over average of α1 Receptors; for α1A/D2 / α1B/D2 / α1D/D2: Table 23: Selectivity of Dopamine D3 over α1 Receptors, ratio of Ki
Protocol: as §3, §4, §5, §6, §7, §8

[7] = read-out: Experimental Receptor Binding Data-Ki D2, Table 25, GPCR panel
[8] = read-out: Experimental Receptor Binding Data-Ki D3, Table 25, GPCR panel

| Compound | Alpha1B (% inh) (Alpha1B) | D5 (% inh) (dopamine D5) | Alpha1A (% inh) (Alpha1A) | 5ht1a (% inh) (5HT1a [1]) | D3 (% inh) (dopamine D3 [2]) | D2 (% inh) (dopamine D2 [3]) | D1 (% inh) (dopamine D1) | D4 (% inh) (dopamine D4) | Ki (5-HT5A) [nM] | α1/D2 (5HT1a [4]) | α1A/D2 (5HT1a [4]) | α1B/D2 (5HT1a [4]) | α1D/D2 (5HT1a [4]) | α1/D2 (dopamine D2 [5]) | α1A/D2 (dopamine D2 [5]) | α1B/D2 (dopamine D2 [5]) | α1D/D2 (dopamine D2 [5]) | Ki (5-HT2B) [nM] | α1A/D2 (dopamine D3 [6]) | α1B/D2 (dopamine D3 [6]) | also measured |
| --- | --- | --- | --- | --- | --- | --- | --- | --- | --- | --- | --- | --- | --- | --- | --- | --- | --- | --- | --- | --- | --- |
| COc1ccc2c(c1)C(=O)N(CCCN1CCN(c3ccccc3OC)CC1)C2 [GFR-VII-273] | 102.5 | 31.8 | 102.2 | 92.5 | 94.1 | 85 | 49.5 | 99.6 | 2900 | 24.0 | 10.0 | 49.7 | 12.5 | 0.12 | 0.080 | 0.398 | 0.100 | 19 | 0.4 | 1.98 | Ki (5HT1a [4]): 6.5 nM; Ki (dopamine D2 [5]): 812 nM; Ki (dopamine D3 [6]): 163 nM; α1/D2 (dopamine D3 [6]): 1.0; α1D/D2 (dopamine D3 [6]): 0.5 |
| COc1ccc2c(c1)C(=O)N(CCN1CCN(c3ccccc3OC)CC1)C2 [GFR-VII-280-HCl] | 101 | 6 | 101.5 | 92 | 95.7 | 69.8 | 30 | 95.9 | 2490 | 5.9 | 3.5 | 12.1 | 2.1 | 0.008 | 0.005 | 0.017 | 0.003 | 242 | 0.05 | 0.16 | Ki (5HT1a [4]): 2.4 nM; Ki (dopamine D2 [5]): 1740 nM; Ki (dopamine D3 [6]): 180 nM; α1/D2 (dopamine D3 [6]): 0.1; α1D/D2 (dopamine D3 [6]): 0.03 |
| COc1ccc2c(c1)C(=O)N(CCN1CCN(c3ccccc3OC)CC1)C2 [GFR-VII-280] | 104.4 | 21.8 | 101.2 | 92.4 | 98.1 | 66.6 | 29.3 | 97.2 |  | 6.4 | 4.5 | 11.1 | 3.5 | 0.014 | 0.010 | 0.023 | 0.008 |  | 0.08 | 0.19 | Ki (5-HT5A; read-out: Experimental Receptor Binding Data-Ki 5HT5A, Table 25, GPCR panel): 2150 nM; Ki (5HT1a [4]; read-out: Experimental Receptor Binding Data-Ki 5HT1A, Table 25, GPCR panel): 3.5 nM; Ki (5HT1a [4]; read-out: Ki 5HT1A): 3.5 nM; Ki (dopamine D2 [5]; [7]): 1650 nM; Ki (dopamine D2 [5]; read-out: KiD2): 1650 nM; Ki (5-HT2B; read-out: Experimental Receptor Binding Data-Ki 5HT2B, Table 25, GPCR panel): 160 nM; α1D/D2 (dopamine D3 [6]): 0.06; Ki (dopamine D3 [6]; [8]): 208 nM; Ki (dopamine D3 [6]; read-out: KiD3): 208 nM |
| COc1cc2c(cc1OC)C(=O)N(CCCCN1CCN(c3ccccc3OC)CC1)C2 [GFR-VII-285] | 101.5 | 75.1 | 102.7 | 93.3 | 100.5 | 96.2 | 91.3 | 91.6 | 2440 | 0.4 | 0.04 | 0.8 | 0.2 | 0.053 | 0.006 | 0.124 | 0.028 | 41 | 0.08 | 1.8 | Ki (5HT1a [4]): 23 nM; Ki (dopamine D2 [5]; [7]): 156 nM; Ki (dopamine D2 [5]; read-out: KiD2): 156 nM; α1/D2 (dopamine D3 [6]): 0.75; α1D/D2 (dopamine D3 [6]): 0.4; Ki (dopamine D3 [6]; [8]): 11 nM; Ki (dopamine D3 [6]; read-out: KiD3): 11 nM |
| COc1ccc2c(c1)CN(CCCN1CCN(c3ccccc3OC)CC1)C2=O [GFR-VII-290] | 52.4 | 32.5 | 99.1 | 98.3 | 94.7 | 82.1 | 54.5 | 97.3 | 2470 | 12.7 | 3.2 | 32.0 | 2.9 | 0.177 | 0.044 | 0.445 | 0.041 | 117 | 0.4 | 4.0 | Ki (5HT1a [4]; read-out: Ki 5HT1A): 19 nM; Ki (dopamine D2 [5]; [7]): 1370 nM; Ki (dopamine D2 [5]; read-out: KiD2): 1370 nM; α1/D2 (dopamine D3 [6]): 1.6; α1D/D2 (dopamine D3 [6]): 0.37; Ki (dopamine D3 [6]; [8]): 152 nM; Ki (dopamine D3 [6]; read-out: KiD3): 152 nM |
| CC1Cc2ccccc2N1C(=O)CN1CCN(Cc2ccccc2)CC1 (stereo not drawn) [STT-00185638, 2-[-4-(benzyl)-piperazin-1-yl]-1-(2-methy-2,3-dihydro-indol-1-yl)-ethanone] | 16 | 9.7 | 69.1 | 64.9 | 63.6 | 66.2 | 50.8 | 99.4 | 6770 |  |  |  |  |  |  |  |  | 879 |  |  | Ki (5HT1a [4]): 7080 nM; Ki (dopamine D2 [5]): 2460 nM; Ki (dopamine D3 [6]): 3220 nM |
